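A five-concentration, 48-hour dose response in 96-well plates underlies each endpoint, interpolated linearly between surrounding concentrations. At the GI50, growth is halved.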 Calls of active or inactive are those of the source. Rule as the data show it: active = GI50 up to about 1.1 µM and inactive = higher.
Legend:
Assay in all cases: growth of human tumour cells (NCI), 48 h
[1] = system: HOP-62
[2] = system: SF-539
[3] = system: RPMI-8226
[4] = system: NCI-H522
[5] = system: OVCAR-8
[6] = system: EKVX
[7] = system: T47D
[8] = system: SK-OV-3
[9] = system: DU-145
[10] = system: SNB-19
[11] = system: UACC-257
[12] = system: U-251
[13] = system: MOLT-4
[14] = system: A549
[15] = system: UO-31
[16] = system: HCT-15
[17] = system: IGROV-1
[18] = system: SF-295
[19] = system: OVCAR-5
[20] = system: NCI/ADR-RES
[21] = system: HCC 2998
[22] = system: 786-0
[23] = system: OVCAR-4
[24] = system: BT-549
[25] = system: A498
[26] = system: MDA-MB-435
[27] = system: HOP-92
[28] = system: SN12C
[29] = system: NCI-H460
[30] = system: K562
[31] = system: ACHN
[32] = system: SF-268
[33] = system: Malme-3M
[34] = system: MDA-MB-231
[35] = system: KM12
[36] = system: SK-MEL-28
[37] = system: RXF 393
[38] = system: UACC-62
[39] = system: COLO 205
[40] = system: OVCAR-3
[41] = system: NCI-H23
[42] = system: SK-MEL-2
[43] = system: CAKI-1
[44] = system: CCRF-CEM
[45] = system: HCT-116
[46] = system: MCF7
[47] = system: NCI-H226
[48] = system: SR
[49] = system: M14
[50] = system: PC-3
[51] = system: SNB-75
[52] = system: MDA-N
[53] = system: SW-620
[54] = system: TK-10
[55] = system: LOX IMVI
[56] = system: SK-MEL-5
[57] = system: Hs-578T
[58] = system: HT-29

CSc1ccc2c(cc1=O)[C@@H](NC(=O)c1ccc(N)cc1)CCc1cc(O)c(O)c(O)c1-2
GI50 [1]: 15.1 µM (inactive)
GI50 [2]: 3.85 µM (inactive)
GI50 [3]: 22.3 µM (inactive)
GI50 [4]: 7.67 µM (inactive)
GI50 [5]: 22 µM (inactive)
GI50 [6]: 30.1 µM (inactive)
GI50 [7]: 66.1 µM (inactive)
GI50 [8]: > 100 µM (inactive)
GI50 [9]: 49.1 µM (inactive)
GI50 [10]: 25.1 µM (inactive)
GI50 [11]: 18.3 µM (inactive)
GI50 [12]: 25.4 µM (inactive)
GI50 [13]: 22.6 µM (inactive)
GI50 [14]: 23.6 µM (inactive)
GI50 [15]: 26 µM (inactive)
GI50 [16]: 17.9 µM
GI50 [17]: 25 µM (inactive)
GI50 [18]: 15.7 µM (inactive)
GI50 [19]: 23.4 µM (inactive)
GI50 [20]: 28.5 µM (inactive)
GI50 [21]: 14.5 µM (inactive)
GI50 [22]: 16.4 µM (inactive)
GI50 [23]: 22 µM (inactive)
GI50 [24]: 16 µM (inactive)
GI50 [25]: 46.2 µM (inactive)
GI50 [26]: 7.85 µM (inactive)
GI50 [27]: 41.4 µM (inactive)
GI50 [28]: 27.9 µM (inactive)
GI50 [29]: 12 µM (inactive)
GI50 [30]: 9.66 µM (inactive)
GI50 [31]: 21.2 µM (inactive)
GI50 [32]: 13.6 µM (inactive)

Nc1nc(Cl)cc(NC23CC4CC(CC(C4)C2)C3)n1
GI50 [33]: 44.1 µM (inactive)
GI50 [1]: > 100 µM (inactive)
GI50 [2]: 47.9 µM (inactive)
GI50 [3]: > 100 µM (inactive)
GI50 [34]: 94.6 µM (inactive)
GI50 [4]: 31 µM (inactive)
GI50 [35]: > 100 µM (inactive)
GI50 [36]: > 100 µM (inactive)
GI50 [5]: 90.6 µM (inactive)
GI50 [37]: > 100 µM (inactive)
GI50 [38]: > 100 µM (inactive)
GI50 [6]: > 100 µM (inactive)
GI50 [7]: > 100 µM (inactive)
GI50 [8]: > 100 µM (inactive)
GI50 [9]: > 100 µM (inactive)
GI50 [39]: 81.8 µM (inactive)
GI50 [10]: > 100 µM (inactive)
GI50 [11]: > 100 µM (inactive)
GI50 [12]: 32 µM (inactive)
GI50 [13]: > 100 µM (inactive)
GI50 [14]: 98.6 µM (inactive)
GI50 [15]: > 100 µM (inactive)
GI50 [16]: 40.6 µM
GI50 [40]: > 100 µM (inactive)
GI50 [17]: 57.3 µM (inactive)
GI50 [41]: 34 µM (inactive)
GI50 [42]: 19.4 µM (inactive)
GI50 [18]: 85.5 µM (inactive)
GI50 [19]: > 100 µM (inactive)
GI50 [43]: > 100 µM (inactive)
GI50 [44]: > 100 µM (inactive)
GI50 [20]: 42.9 µM (inactive)
GI50 [21]: > 100 µM (inactive)
GI50 [45]: 78.2 µM (inactive)
GI50 [46]: 85.9 µM (inactive)
GI50 [22]: > 100 µM (inactive)
GI50 [23]: > 100 µM (inactive)
GI50 [47]: 76.2 µM (inactive)
GI50 [48]: > 100 µM (inactive)
GI50 [49]: > 100 µM (inactive)
GI50 [24]: 61.7 µM (inactive)
GI50 [50]: 29.2 µM (inactive)
GI50 [25]: > 100 µM (inactive)
GI50 [26]: > 100 µM (inactive)
GI50 [27]: > 100 µM (inactive)
GI50 [51]: 26.2 µM (inactive)
GI50 [28]: > 100 µM (inactive)
GI50 [29]: > 100 µM (inactive)
GI50 [30]: > 100 µM (inactive)
GI50 [52]: > 100 µM (inactive)
GI50 [31]: > 100 µM (inactive)
GI50 [32]: 47.1 µM (inactive)
GI50 [53]: > 100 µM (inactive)

O=C1Nc2ccccc2/C1=N/Nc1nc(-c2ccc(Br)cc2)cs1
GI50 [1]: 14.6 µM (inactive)
GI50 [2]: 17.5 µM (inactive)
GI50 [54]: 28.6 µM (inactive)
GI50 [34]: 17.5 µM (inactive)
GI50 [4]: 25.9 µM (inactive)
GI50 [35]: 30.3 µM (inactive)
GI50 [36]: 12.6 µM (inactive)
GI50 [55]: 17.4 µM (inactive)
GI50 [5]: 19.5 µM (inactive)
GI50 [37]: 43.9 µM (inactive)
GI50 [38]: 20.6 µM (inactive)
GI50 [56]: 15.6 µM (inactive)
GI50 [6]: 7.85 µM (inactive)
GI50 [8]: 23.7 µM (inactive)
GI50 [9]: 23.3 µM (inactive)
GI50 [39]: 24.9 µM (inactive)
GI50 [10]: 18.5 µM (inactive)
GI50 [11]: 22.7 µM (inactive)
GI50 [12]: 14.3 µM (inactive)
GI50 [13]: 74.8 µM (inactive)
GI50 [14]: 25.2 µM (inactive)
GI50 [15]: 10.3 µM (inactive)
GI50 [16]: 19.4 µM
GI50 [40]: 20.7 µM (inactive)
GI50 [17]: 0.678 µM (active)
GI50 [41]: 27.2 µM (inactive)
GI50 [42]: 46.1 µM (inactive)
GI50 [18]: 24.1 µM (inactive)
GI50 [19]: 23.8 µM (inactive)
GI50 [43]: 18.6 µM (inactive)
GI50 [44]: 15.7 µM (inactive)
GI50 [20]: 18 µM (inactive)
GI50 [21]: 31.8 µM (inactive)
GI50 [45]: 26.7 µM (inactive)
GI50 [46]: 37.3 µM (inactive)
GI50 [22]: 17.3 µM (inactive)
GI50 [23]: 18.5 µM (inactive)
GI50 [49]: 21.8 µM (inactive)
GI50 [24]: 20 µM (inactive)
GI50 [57]: 17.9 µM (inactive)
GI50 [50]: 28.6 µM (inactive)
GI50 [26]: 36.5 µM (inactive)
GI50 [27]: 11.4 µM (inactive)
GI50 [51]: 19.7 µM (inactive)
GI50 [28]: 27.1 µM (inactive)
GI50 [29]: 21.4 µM (inactive)
GI50 [52]: 41.5 µM (inactive)
GI50 [31]: 17.5 µM (inactive)
GI50 [32]: 20 µM (inactive)
GI50 [58]: 17.7 µM (inactive)
GI50 [53]: 28.2 µM (inactive)

From ChEMBL document CHEMBL1201862, “PubChem BioAssay data set” (2004)
